The values that follow come from PubChem BioAssay (NCI).

Among the test systems are PC-3 prostate; HOP-92 NSCLC; SK-OV-3 ovarian; NCI-H23 lung; SK-MEL-2 melanoma; BT-549 breast; HOP-62 NSCLC; OVCAR-3 ovarian; NCI-H226 lung; SF-539 CNS.
What all share (assay): inhibition of tumour cell growth, NCI panel, 48 h

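Step 1: Grow cells in 96-well plates. Step 2: Expose to compound for 48 hours at 5 concentrations. Step 3: Interpolate endpoints linearly; if unreached, use highest concentration. Definition used: TGI = concentration required for complete inhibition of growth.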

As for `Clc1sc(Cl)c2c1[C@@H](Cl)C[C@@H]2Br`, the TGI in the experiment on PC-3 prostate, with HOP-92 NSCLC, with SK-OV-3 ovarian, in the experiment on NCI-H23 lung, in the experiment with SK-MEL-2 melanoma and with BT-549 breast was over 100 µM in each case. Moreover, the TGI in the experiment with HOP-62 NSCLC is over 100 µM.
As for `Cn1ncc2c(NCc3ccccc3)ncnc21`, the TGI in the experiment on SK-OV-3 ovarian, in the experiment with NCI-H23 lung, in the experiment with OVCAR-3 ovarian, with NCI-H226 lung, in the experiment on SF-539 CNS and with BT-549 breast was over 100 µM in each case. The compound further came in with a TGI in the experiment with HOP-62 NSCLC of over 100 µM.
In the case of `C=C(C)[C@H]1C2=CC(C(=O)OC)=C(C[C@H](C(=C)C)[C@@H](O)[C@@H](O)C3=C[C@H]1OC3=O)O2`, the TGI in the experiment on HOP-92 NSCLC, in the experiment on SK-OV-3 ovarian, in the experiment on NCI-H23 lung, in the experiment with SK-MEL-2 melanoma, in the experiment on OVCAR-3 ovarian and in the experiment with NCI-H226 lung was over 100 µM each time. The TGI in the experiment on SF-539 CNS, in the experiment on BT-549 breast and with HOP-62 NSCLC was over 100 µM each time.
As for `N#Cc1sc2c(c1OC(=O)c1ccc(C(F)(F)F)cc1)c(=O)n(-c1ccccc1)c(=S)n2-c1ccccc1`, the TGI in the experiment on PC-3 prostate is over 100 µM; in the experiment on HOP-92 NSCLC it was 68.4 µM; in the experiment with SK-OV-3 ovarian, over 100 µM; in the experiment on NCI-H23 lung, over 100 µM; with OVCAR-3 ovarian it was 55.5 µM; with NCI-H226 lung, 99.8 µM. Also, the TGI in the experiment on SF-539 CNS was 59 µM; in the experiment on HOP-62 NSCLC it was over 100 µM.
As for `c1ccc(C(C(=Nc2ccc(Cc3ccc(N=C(C(c4ccccc4)c4ccccc4)N4CC4)cc3)cc2)N2CC2)c2ccccc2)cc1`, the TGI is 22.6 µM with PC-3 prostate; 11.1 µM with SK-OV-3 ovarian; 30.8 µM in the experiment on NCI-H23 lung; 24.6 µM in the experiment on SK-MEL-2 melanoma; 24.6 µM in the experiment on OVCAR-3 ovarian; 38.3 µM in the experiment on NCI-H226 lung. Besides, the results for the TGI in the experiment with SF-539 CNS, with BT-549 breast and in the experiment with HOP-62 NSCLC were 37.8 µM, 24.7 µM and 33 µM, respectively.
Take `Nc1c(S(=O)(=O)c2ccc(Cl)cc2)c2nc3ccccc3nc2n2ccnc12`: the TGI in the experiment on HOP-92 NSCLC is over 100 µM; with SK-OV-3 ovarian, over 100 µM; in the experiment on NCI-H23 lung it was over 100 µM; in the experiment with SK-MEL-2 melanoma it was over 100 µM; in the experiment with OVCAR-3 ovarian, over 100 µM; with NCI-H226 lung, 84.1 µM. Further, the TGI in the experiment on SF-539 CNS stood at 36.2 µM.
Consider `CC(C)C1=CC23CCC4C(C)(C(=O)O)CCCC4(C)C2CC1C1C(=O)N(CCCCCCN2C(=O)C4C5CC6C7(C)CCCC(C)(C(=O)O)C7CCC6(C=C5C(C)C)C4C2=O)C(=O)C13` (stereo unspecified), for which the TGI with PC-3 prostate turned out to be 19 µM; in the experiment with HOP-92 NSCLC, 36.2 µM; in the experiment with NCI-H23 lung, 14.9 µM; in the experiment with SK-MEL-2 melanoma it was 28.2 µM; in the experiment on OVCAR-3 ovarian it was 26.8 µM.
Regarding `Cc1nc2ccccc2c(-n2cccn2)c1CCn1cccn1`, the TGI in the experiment with PC-3 prostate, in the experiment with HOP-92 NSCLC, with SK-OV-3 ovarian, with NCI-H23 lung, in the experiment on SK-MEL-2 melanoma and in the experiment on OVCAR-3 ovarian was over 100 µM each time. Moreover, the TGI in the experiment with NCI-H226 lung, with SF-539 CNS and with HOP-62 NSCLC was over 100 µM throughout.
As for `COc1ccc(NC(=O)CSc2nnc(-c3ccc(NC(C)=O)cc3)o2)cc1`, the TGI in the experiment with SK-OV-3 ovarian was over 100 µM; with NCI-H23 lung, 23.2 µM; with SK-MEL-2 melanoma, 38 µM; in the experiment with OVCAR-3 ovarian, 35.5 µM; with NCI-H226 lung, 57.8 µM; in the experiment on HOP-62 NSCLC, 68.6 µM.
Take `O=C(NN1C(=O)CS(=O)(=O)C1c1ccc(C(F)(F)F)cc1)c1ccncc1` (stereo unspecified): the TGI in the experiment with HOP-92 NSCLC, in the experiment on SK-OV-3 ovarian, in the experiment with NCI-H23 lung, with SK-MEL-2 melanoma, with NCI-H226 lung and in the experiment on HOP-62 NSCLC was over 100 µM each time.
`O=C1NC(O)CCN1C1OC(CO)C(O)C1O` (stereo unspecified): the TGI with HOP-92 NSCLC is over 250 µM; in the experiment on SK-OV-3 ovarian, over 250 µM; with NCI-H23 lung, over 250 µM; with SK-MEL-2 melanoma, over 158 µM; in the experiment on OVCAR-3 ovarian, over 250 µM; in the experiment with NCI-H226 lung it was over 250 µM. In addition, the TGI with SF-539 CNS and with HOP-62 NSCLC was over 250 µM throughout.
As to `COc1cccc2c1OC(c1cccc3ccccc13)C([N+](=O)[O-])=C2` (stereo unspecified), the TGI in the experiment on PC-3 prostate turned out to be 2.37 µM; with SK-OV-3 ovarian, 9.89 µM; in the experiment on NCI-H23 lung, 4.29 µM; with OVCAR-3 ovarian, 2.74 µM; in the experiment on NCI-H226 lung, 4.32 µM; in the experiment on BT-549 breast, 2.74 µM. The compound also displayed a TGI in the experiment on HOP-62 NSCLC of 5.36 µM.
As to `O=C(OCC(Cl)(Cl)Cl)N1CC[C@H](C2CCCCC2)C1`, the TGI stood at 48.7 µM in the experiment on PC-3 prostate; 31.8 µM in the experiment with SK-OV-3 ovarian; 33.2 µM with NCI-H23 lung; 30.4 µM in the experiment on SK-MEL-2 melanoma; 30.3 µM in the experiment on OVCAR-3 ovarian; 53.9 µM in the experiment on BT-549 breast. In the experiment with HOP-62 NSCLC, this compound showed a TGI of 32.8 µM.
With `COc1ccc(N2C(=O)C3c4[nH]c5cc(C)ccc5c4C4CCC(C(C)(C)C)CC4C3C2=O)cc1` (stereo unspecified), the TGI in the experiment on PC-3 prostate, in the experiment with SK-OV-3 ovarian, with NCI-H23 lung, with SK-MEL-2 melanoma, with OVCAR-3 ovarian and in the experiment with NCI-H226 lung was over 10 µM each time. Further, the TGI with SF-539 CNS and with HOP-62 NSCLC was over 10 µM throughout.
Take `CC(C(=O)COCc1ccccc1)P1(=O)OC(C)(C)CN1C(C)(C)C` (stereo unspecified): the TGI with HOP-92 NSCLC, with SK-OV-3 ovarian, in the experiment with NCI-H23 lung, with OVCAR-3 ovarian, in the experiment with NCI-H226 lung and with SF-539 CNS was over 100 µM each time. The compound further registered a TGI with HOP-62 NSCLC of over 100 µM.
For `Cc1cc(C[C@H]2O[C@@H]3OC(C)(C)O[C@@H]3[C@H]3OC(C)(C)O[C@H]32)c2ccccc2n1`, the TGI in the experiment with PC-3 prostate, with SK-OV-3 ovarian, with NCI-H23 lung, in the experiment with SK-MEL-2 melanoma, with NCI-H226 lung and in the experiment with SF-539 CNS was over 100 µM in each case. In the experiment on HOP-62 NSCLC, the TGI is over 100 µM.
As for `CCOc1c(OC)cc(-c2nc3n(n2)C(=O)C(CC)S3)cc1OC` (stereo unspecified), the TGI in the experiment on PC-3 prostate, in the experiment with SK-OV-3 ovarian, with NCI-H23 lung, in the experiment with SK-MEL-2 melanoma, in the experiment on OVCAR-3 ovarian and in the experiment with NCI-H226 lung was over 10 µM each time. The TGI in the experiment with SF-539 CNS, in the experiment with BT-549 breast and with HOP-62 NSCLC was over 10 µM in each case.
